Results from ChEMBL document CHEMBL1145508, “Role of homoserine transacetylase as a new target for antifungal agents” (Antimicrob Agents Chemother, 2007).

Tests used:
[1] = Inhibition of Schizosaccharomyces pombe HTA in presence of 10 uM acetyl-CoA substrate
[2] = Inhibition of Schizosaccharomyces pombe HTA in presence of 100 uM acetyl-CoA substrate
[3] = Inhibition of Cryptococcus neoformans H99 HTA expressed in Escherichia coli BL21(DE3) cells

- IC50 [1]: 156 µM
- IC50 [2]: 287 µM
- IC50 [3]: 4.5 µM
Compound: NC(=O)c1cccc2c1NC(C(=O)O)C1CC=CC21 (centres undefined)
- Ki [3]: 91.7 µM
